Values quoted from earlier work as cited in patent publication US5908934A, “Process for the preparation of chiral ketone intermediates useful for the preparation of flavopiridol and analogs” (Bristol-Myers Squibb Company, priority 1997, dated 1999).

Tested on: apoptosis
Conditions: combination with known cytotoxic agents; J. Cell Sci., 108, 2897 (1995)

Cn1cnc2c(NCc3ccccc3)nc(NCCO)nc21 [olomucine]
synergy with known cytotoxic agents in inducing apoptosis: act synergistically with known cytotoxic agents in inducing apoptosis
